Tests used:
Format in all cases: in vivo
Parameters in all cases: scale not given here
[1] = system: common lambsquarters (Ch); assay: Test Example 5: crop plant selectivity by upland field soil treatment (wheat), herbicidal effects; details: 21st day after application
How it was run: (§1)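 Wheat and weeds were sown in sand-filled pots and covered with soil, then treated by soil application. Plants grew in a greenhouse, and herbicidal effect and crop phytotoxicity were scored on a rating scale 21 days after application.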

green foxtail (Se) = assay: as above; details: 21st day after application
How it was run: as §1

China jute (Ab) [2] = assay: as above; details: 21st day after application
How it was run: as §1

pale smartweed (Po) = assay: as above; details: 21st day after application
How it was run: as §1

slender amaranth (Am) = assay: as above; details: 21st day after application
How it was run: as §1

cotton (Go) = assay: Test Example 4: crop plant selectivity by upland field soil treatment (cotton), phytotoxicity; details: evaluated 21st day after application
How it was run: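 Seeds of cotton and several weed species were sown in sand-filled pots and covered with soil before soil treatment with the test compound. Plants were grown in a greenhouse, and herbicidal effect and crop phytotoxicity were scored against set standards 21 days after application.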

[3] = system: common lambsquarters (Ch); assay: Test Example 11: crop plant selectivity by upland field foliage treatment (corn), herbicidal effects; details: dose 1.6 g ai/10a
How it was run: (§2)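 Corn with pale smartweed, slender amaranth, common lambsquarters and China jute sown in sand-filled pots and grown 2 weeks in a greenhouse before foliage treatment. Herbicidal effect and crop phytotoxicity scored on day 14 after treatment against a rating standard.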

China jute (Ab) [4] = assay: as above; details: dose 1.6 g ai/10a
How it was run: as §2

corn (Ze) = assay: Test Example 7: crop plant selectivity by upland field soil treatment (corn), phytotoxicity; details: 21st day after application
How it was run: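 Corn and weed seeds were sown in sand-filled pots and covered with soil. After application, plants were grown in a greenhouse, and herbicidal effect and crop phytotoxicity were scored against fixed rating standards on day 21.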

[5] = upland field foliage treatment (corn test), 14th day after treatment

Row | Compound | Herbicidal effects Ch ([1]; dose 6.3 g ai/10a) | Herbicidal effects Se (green foxtail (Se); dose 6.3 g ai/10a) | Herbicidal effects Ab (China jute (Ab) [2]; dose 6.3 g ai/10a) | Herbicidal effects Po (pale smartweed (Po); dose 6.3 g ai/10a) | Herbicidal effects Am (slender amaranth (Am); dose 6.3 g ai/10a) | Phytotoxicity Go (cotton (Go); dose 6.3 g ai/10 a) | Herbicidal effects Ch [3, 5] | Herbicidal effects Ab (China jute (Ab) [4]; [5]) | Phytotoxicity Ze (corn (Ze); dose 6.3 g ai/10a) | Herbicidal effects Ch ([3]; common lambsquarters, foliage treatment, evaluated on 14th day after treatment, index per Table 47) | Herbicidal effects Ab (China jute (Ab) [4]; China jute, foliage treatment, evaluated on 14th day after treatment, index per Table 47) | Herbicidal effects Ch ([1]; dose 1.6 g ai/10a) | Herbicidal effects Se (green foxtail (Se); dose 1.6 g ai/10a) | Herbicidal effects Ab (China jute (Ab) [2]; dose 1.6 g ai/10a) | Herbicidal effects Po (pale smartweed (Po); dose 1.6 g ai/10a) | Herbicidal effects Am (slender amaranth (Am); dose 1.6 g ai/10a) | Phytotoxicity Go (cotton (Go); dose 1.6 g ai/10 a) | Phytotoxicity Ze (corn (Ze); dose 1.6 g ai/10a)
1 | CCCc1cc2c(-c3ccc(C(F)(F)F)n(C)c3=O)c(F)cc(Cl)c2o1 [Compound 4-3] | 5 | 5 | 5 | 5 | 5 | 0 | 5 | 5 | 1 |  |  |  |  |  |  |  |  | 
2 | CCc1cc2c(Cl)cc(F)c(-c3ccc(C(F)(F)F)n(C)c3=O)c2o1 [Compound 5-2] | 5 | 5 | 5 | 5 | 5 | 1 |  |  | 0 | 5 | 5 |  |  |  |  |  |  | 
3 | CON=Cc1cc(-c2ccc(C(F)(F)F)n(C)c2=O)c(F)cc1Cl [Compound No. 1-72, 5-(1-methyl-6-trifluoromethyl-2(1H)-pyridon-3-yl)-2-chloro-4-fluorobenzaldehydeoxime-O-methyl ether] |  |  |  |  |  | 0 | 5 | 5 |  |  |  | 5 | 5 | 5 | 5 | 5 | 0 | 0
4 | CCCC(=O)c1cc(-c2ccc(C(F)(F)F)n(C)c2=O)c(F)cc1Cl [Compound No. 1-194, 3-[4-chloro-2-fluoro-5-(1-oxobutyl)phenyl]-1-methyl-6-trifluoromethyl-2(1H)-pyridone] | 5 | 5 | 5 | 5 | 5 | 1 | 5 | 5 | 0 |  |  |  |  |  |  |  |  | 
5 | COCc1cc2c(-c3ccc(C(F)(F)F)n(C)c3=O)c(F)cc(Cl)c2o1 [Compound No. 4-4, 3-(7-chloro-5-fluoro-2-methoxymethylbenzofuran-4-yl)-1-methyl-6-trifluoromethyl-2-(1H)-pyridone] |  |  |  |  |  | 1 | 5 | 5 | 2 |  |  | 5 | 5 | 5 | 5 | 5 | 0 | 1
6 | Cn1c(C(F)(F)F)ccc(-c2c(F)cc(Cl)c3oc(CO)cc23)c1=O [Compound No. 4-5, 3-(7-chloro-5-fluoro-2-hydroxymethylbenzofuran-4-yl)-1-methyl-6-trifluoromethyl-2-(1H)-pyridone] | 5 | 5 | 5 | 5 | 5 | 2 | 5 | 5 | 0 |  |  |  |  |  |  |  |  | 
7 | Cn1c(C(F)(F)F)ccc(-c2c(F)cc(Cl)c3occc23)c1=O [Compound No. 4-28, 3-(7-chloro-5-fluorobenzofuran-4-yl)-1-methyl-6-trifluoromethyl-2-(1H)-pyridone] | 5 | 5 | 5 | 5 | 5 | 1 | 5 | 5 |  |  |  |  |  |  |  |  | 0 | 1

From patent US6472348B1, “Pyridone derivatives and herbicides” (Kumiai Chemical Industry Co., Ltd., priority 1996, dated 2002)
